Results: PubChem BioAssay AID330 (DTP/NCI, 2004)
Values joined by “and” are separate entries in the source; they are usually repeats but may differ in a detail not shown here. Identical values can stand only once. Toxic doses and inconclusive results are not listed.

System: P388 leukemia ip, CD2F1 mice, survival T/C
Test: NCI In Vivo Anticancer Drug Screen. Data for tumor model P388 Leukemia (intraperitoneal) in CD2F1 (CDF1) mice
Conditions: endpoint: median survival time, higher = longer survival
Method in brief: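 Mice carrying the transplanted tumor received test compound or vehicle. Survival was recorded in each group, and the value is the treated-group measurement divided by that of the vehicle-treated control group.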

[1] = dose: 25.0 mg/kg/injection, schedule: Q01DX009 (ip), vehicle: saline with Tween-80
[2] = dose: 50.0 mg/kg/injection, schedule: Q01DX009 (ip), vehicle: saline with Tween-80
[3] = dose: 100.0 mg/kg/injection, schedule: Q01DX009 (ip), vehicle: saline with Tween-80
[4] = dose: 200.0 mg/kg/injection, schedule: Q01DX009 (ip), vehicle: saline with Tween-80
[5] = dose: 60.0 mg/kg/injection, schedule: Q01DX005 (ip), vehicle: saline with Tween-80
[6] = dose: 120.0 mg/kg/injection, schedule: Q01DX005 (ip), vehicle: saline with Tween-80
[7] = dose: 50.0 mg/kg/injection, schedule: Q01DX009 (ip), vehicle: Klucel (hydroxypropylcellulose) (HPC)
[8] = dose: 100.0 mg/kg/injection, schedule: Q01DX009 (ip), vehicle: Klucel (hydroxypropylcellulose) (HPC)
[9] = dose: 200.0 mg/kg/injection, schedule: Q01DX009 (ip), vehicle: Klucel (hydroxypropylcellulose) (HPC)
[10] = dose: 60.0 mg/kg/injection, schedule: Q01DX005 (ip), vehicle: saline
[11] = dose: 120.0 mg/kg/injection, schedule: Q01DX005 (ip), vehicle: saline
[12] = dose: 50.0 mg/kg/injection, schedule: Q01DX009 (ip), vehicle: suspension in saline
[13] = dose: 100.0 mg/kg/injection, schedule: Q01DX009 (ip), vehicle: suspension in saline
[14] = dose: 200.0 mg/kg/injection, schedule: Q01DX009 (ip), vehicle: suspension in saline
[15] = dose: 15.0 mg/kg/injection, schedule: Q01DX005 (ip), vehicle: saline with Tween-80
[16] = dose: 100.0 mg/kg/injection, schedule: Q04DX003 (ip), vehicle: saline with Tween-80
[17] = dose: 200.0 mg/kg/injection, schedule: Q04DX003 (ip), vehicle: saline with Tween-80
[18] = dose: 100.0 mg/kg/injection, schedule: Q01DX001 (ip), vehicle: Klucel (hydroxypropylcellulose) (HPC)
[19] = dose: 200.0 mg/kg/injection, schedule: Q01DX001 (ip), vehicle: Klucel (hydroxypropylcellulose) (HPC)
[20] = dose: 400.0 mg/kg/injection, schedule: Q01DX001 (ip), vehicle: Klucel (hydroxypropylcellulose) (HPC)
[21] = dose: 240.0 mg/kg/injection, schedule: Q01DX005 (ip), vehicle: saline with Tween-80
[22] = dose: 240.0 mg/kg/injection, schedule: Q01DX005 (ip), vehicle: saline

Structure (SMILES): CCC1(c2ccc(N)cc2)CCC(=O)NC1=O (centres undefined)
- T/C (dose: 50.0 mg/kg/injection, schedule: Q01DX005 (ip), vehicle: Klucel (hydroxypropylcellulose) (HPC)): 91 % of control
- T/C (dose: 100.0 mg/kg/injection, schedule: Q01DX005 (ip), vehicle: Klucel (hydroxypropylcellulose) (HPC)): 100 % of control

Structure (SMILES): Nc1cc(=O)[nH]c(=O)[nH]1
- T/C [1]: 99 % of control
- T/C [2]: 100 % of control
- T/C [3]: 100 % of control
- T/C [4]: 98 % of control

Structure (SMILES): Cc1ccc(NC(=O)Cc2nc3ccccc3s2)c(C)c1
- T/C [5]: 103 % of control
- T/C [6]: 110 % of control

Structure (SMILES): C=CCNC(=S)Nc1ccc(NC(C)=O)c(OC)c1
- T/C [7]: 102 % of control
- T/C [8]: 102 % of control
- T/C [9]: 86 % of control

Structure (SMILES): CC(CN(CC(=O)O)CC(=O)O)N(CC(=O)O)CC(=O)O.[Cl][Pd][Cl] (centres undefined)
- T/C [10]: 94 % of control
- T/C [11]: 91 % of control

Structure (SMILES): CC1(C)CC(=O)C2=C(SC3=C(C2)C(=O)CC(C)(C)S3)S1
- T/C (dose: 60.0 mg/kg/injection, schedule: Q01DX005 (ip), vehicle: Klucel (hydroxypropylcellulose) (HPC)): 104 % of control
- T/C (dose: 120.0 mg/kg/injection, schedule: Q01DX005 (ip), vehicle: Klucel (hydroxypropylcellulose) (HPC)): 100 % of control
- T/C (dose: 240.0 mg/kg/injection, schedule: Q01DX005 (ip), vehicle: Klucel (hydroxypropylcellulose) (HPC)): 87 % of control

Structure (SMILES): COc1ccc(CCNC2(C#N)CCCCC2)cc1OC
- T/C [7]: 98 % of control
- T/C [8]: 102 % of control

Structure (SMILES): CS(=O)(=O)CCS(C)(=O)=O
- T/C [2]: 102 % of control
- T/C [4]: 89 % of control

Structure (SMILES): CCCCNC(=O)OCc1ccc(NCCN(CC)CC)c2c(=O)c3ccccc3sc12
- T/C (dose: 1.56 mg/kg/injection, schedule: Q01DX005 (ip), vehicle: distilled water + Tween-80): 105 % of control and 97 % of control
- T/C (dose: 3.12 mg/kg/injection, schedule: Q01DX005 (ip), vehicle: distilled water + Tween-80): 102 % of control and 112 % of control and 119 % of control
- T/C (dose: 6.25 mg/kg/injection, schedule: Q01DX005 (ip), vehicle: distilled water + Tween-80): 101 % of control and 111 % of control

Structure (SMILES): CC(C)CCNCC(N)C(=O)O (centres undefined)
- T/C (dose: 100.0 mg/kg/injection, schedule: Q04DX003 (ip), vehicle: Klucel (hydroxypropylcellulose) (HPC)): 100 % of control
- T/C (dose: 200.0 mg/kg/injection, schedule: Q04DX003 (ip), vehicle: Klucel (hydroxypropylcellulose) (HPC)): 98 % of control
- T/C (dose: 400.0 mg/kg/injection, schedule: Q04DX003 (ip), vehicle: Klucel (hydroxypropylcellulose) (HPC)): 99 % of control

Structure (SMILES): CC(C)SC(=S)Nc1ccc(F)cc1
- T/C [12]: 101 % of control
- T/C [13]: 101 % of control
- T/C [14]: 107 % of control

Structure (SMILES): CC(C)C(N)P(=O)(O)O (centres undefined)
- T/C (dose: 25.0 mg/kg/injection, schedule: Q01DX009 (ip), vehicle: suspension in saline): 96 % of control
- T/C [12]: 98 % of control
- T/C [13]: 99 % of control
- T/C [14]: 100 % of control

Structure (SMILES): C1CCC2[N-]CCCC2C1.C1CCC2[N-]CCCC2C1.O=[N+]([O-])O.O=[N+]([O-])O.[Cu+2] (centres undefined)
- T/C (dose: 7.5 mg/kg/injection, schedule: Q01DX005 (ip), vehicle: saline with Tween-80): 99 % of control
- T/C [15]: 99 % of control

Structure (SMILES): Nc1ccc2oc3ccccc3c2c1
- T/C [16]: 100 % of control
- T/C [17]: 103 % of control

Structure (SMILES): COc1ccc(C(c2c(O)c3ccccc3oc2=O)N2CCCC2)cc1 (centres undefined)
- T/C [15]: 100 % of control
- T/C (dose: 30.0 mg/kg/injection, schedule: Q01DX005 (ip), vehicle: saline with Tween-80): 100 % of control
- T/C [5]: 103 % of control and 97 % of control

Structure (SMILES): NC(=S)N/N=C/c1c(-c2ccc(Cl)cc2)nc2sccn12
- T/C [18]: 96 % of control
- T/C [19]: 95 % of control
- T/C [20]: 96 % of control

Structure (SMILES): CCCCCCOc1ccc(C(=O)Oc2ccc(OC(=O)c3ccc(N)cc3)cc2)cc1
- T/C [7]: 102 % of control
- T/C [8]: 100 % of control
- T/C [9]: 100 % of control

Structure (SMILES): Oc1ccc2ccccc2c1/C=N\Sc1ccccc1
- T/C [2]: 98 % of control
- T/C [3]: 98 % of control

Structure (SMILES): COc1ccc2c(c1)CCC1OC(c3cccnc3)OC21 (centres undefined)
- T/C [5]: 99 % of control
- T/C [6]: 99 % of control
- T/C [21]: 97 % of control

Structure (SMILES): C=C1C(=O)OC2CC(C)C3CC(OC)OC(OC)C3(C)CC12 (centres undefined)
- T/C [7]: 105 % of control and 97 % of control
- T/C [8]: 103 % of control and 114 % of control
- T/C [9]: 123 % of control and 97 % of control
- T/C (dose: 400.0 mg/kg/injection, schedule: Q01DX009 (ip), vehicle: Klucel (hydroxypropylcellulose) (HPC)): 119 % of control

Structure (SMILES): CNC(=O)N(C)C1OC(CO)C(O)C1O (centres undefined)
- T/C (dose: 100.0 mg/kg/injection, schedule: Q04DX003 (ip), vehicle: water): 113 % of control
- T/C (dose: 200.0 mg/kg/injection, schedule: Q04DX003 (ip), vehicle: water): 119 % of control
- T/C (dose: 400.0 mg/kg/injection, schedule: Q04DX003 (ip), vehicle: water): 119 % of control

Structure (SMILES): O=[N+]([O-])c1cccc(C=Nc2ccc(/C=C/C3(CCl)OCCO3)cc2)c1
- T/C [7]: 98 % of control
- T/C [8]: 97 % of control
- T/C [9]: 91 % of control

Structure (SMILES): CC(NNC(=S)N1CCC(c2ccccc2)CC1)c1cc2ccccc2cn1 (centres undefined)
- T/C (dose: 6.25 mg/kg/injection, schedule: Q01DX005 (ip), vehicle: saline with Tween-80): 97 % of control
- T/C (dose: 12.5 mg/kg/injection, schedule: Q01DX005 (ip), vehicle: saline with Tween-80): 103 % of control
- T/C (dose: 25.0 mg/kg/injection, schedule: Q01DX005 (ip), vehicle: saline with Tween-80): 111 % of control

Structure (SMILES): CCOC(=O)CN1CCC(C(O)c2cc3ccccc3[nH]2)CC1 (centres undefined)
- T/C (dose: 100.0 mg/kg/injection, schedule: Q01DX001 (ip), vehicle: saline): 106 % of control
- T/C (dose: 200.0 mg/kg/injection, schedule: Q01DX001 (ip), vehicle: saline): 110 % of control
- T/C (dose: 400.0 mg/kg/injection, schedule: Q01DX001 (ip), vehicle: saline): 109 % of control

Structure (SMILES): O=C1c2ccccc2C(=Cc2cccnc2)c2ccccc21
- T/C (dose: 6.25 mg/kg/injection, schedule: Q01DX009 (ip), vehicle: saline with Tween-80): 94 % of control
- T/C (dose: 12.5 mg/kg/injection, schedule: Q01DX009 (ip), vehicle: saline with Tween-80): 105 % of control
- T/C [1]: 102 % of control
- T/C [2]: 91 % of control

Structure (SMILES): CS(=O)(=O)OCCN(CCOS(C)(=O)=O)c1ccc(N=Nc2ccccc2C(=O)O)cc1
- T/C (dose: 0.78 mg/kg/injection, schedule: Q01DX009 (ip), vehicle: Klucel (hydroxypropylcellulose) (HPC)): 168 % of control
- T/C (dose: 1.56 mg/kg/injection, schedule: Q01DX009 (ip), vehicle: Klucel (hydroxypropylcellulose) (HPC)): 187 % of control and 206 % of control
- T/C (dose: 3.12 mg/kg/injection, schedule: Q01DX009 (ip), vehicle: Klucel (hydroxypropylcellulose) (HPC)): 233 % of control
- T/C (dose: 3.13 mg/kg/injection, schedule: Q01DX009 (ip), vehicle: Klucel (hydroxypropylcellulose) (HPC)): 242 % of control
- T/C (dose: 6.25 mg/kg/injection, schedule: Q01DX009 (ip), vehicle: Klucel (hydroxypropylcellulose) (HPC)): 107 % of control and 213 % of control

Structure (SMILES): Cc1ccc(/C(CBr)=N/N=C(/CBr)c2ccc(C)cc2)cc1
- T/C [7]: 100 % of control
- T/C [8]: 92 % of control
- T/C [9]: 98 % of control

Structure (SMILES): N#CC(C#N)=C(O)/C(=C/c1ccc([N+](=O)[O-])cc1)NC(=O)c1ccccc1
- T/C [10]: 95 % of control
- T/C [11]: 100 % of control
- T/C [22]: 95 % of control

Structure (SMILES): CC(=O)O[C@H]1CC[C@]2(C)C3CC[C@]4(C)C([C@H](C)CCCC(C)C)CCC4[C@]3(C#N)n3c(=O)n(-c4ccccc4)c(=O)n3[C@]2(C#N)C1 (some centres undefined)
- T/C [5]: 96 % of control
- T/C [6]: 93 % of control
- T/C [21]: 91 % of control

Structure (SMILES): C1CCC2(CC1)SCC1COCN12 (centres undefined)
- T/C [16]: 103 % of control
- T/C [17]: 97 % of control
- T/C (dose: 400.0 mg/kg/injection, schedule: Q04DX003 (ip), vehicle: saline with Tween-80): 103 % of control

Structure (SMILES): CC(=O)N1CCCN(C)/C1=N/[N+](=O)[O-]
- T/C [10]: 103 % of control
- T/C [11]: 100 % of control
- T/C [22]: 108 % of control

Structure (SMILES): COc1ccc(Cn2nnc(C(N)=O)c2Cl)cc1
- T/C [18]: 99 % of control
- T/C [19]: 99 % of control
- T/C [20]: 89 % of control
